Results as given in EP3442964B1, “NOVEL N-[(PYRIMIDINYLAMINO)PROPANYL]-AND N [(PYRAZINYLAMINO)PROPANYL]ARYLCARBOXAMIDES” (Boehringer Ingelheim International GmbH, priority 2016, dated 2017).
pIC50: −log10 of the molar value. Like-named read-outs stand apart in the source and are kept apart here.

Legend:
OX2R [1] = molecular target: T1, OX2R (Homo sapiens, UniProt O43614); conditions: cited from earlier work
T1 sequence (O43614 1-444): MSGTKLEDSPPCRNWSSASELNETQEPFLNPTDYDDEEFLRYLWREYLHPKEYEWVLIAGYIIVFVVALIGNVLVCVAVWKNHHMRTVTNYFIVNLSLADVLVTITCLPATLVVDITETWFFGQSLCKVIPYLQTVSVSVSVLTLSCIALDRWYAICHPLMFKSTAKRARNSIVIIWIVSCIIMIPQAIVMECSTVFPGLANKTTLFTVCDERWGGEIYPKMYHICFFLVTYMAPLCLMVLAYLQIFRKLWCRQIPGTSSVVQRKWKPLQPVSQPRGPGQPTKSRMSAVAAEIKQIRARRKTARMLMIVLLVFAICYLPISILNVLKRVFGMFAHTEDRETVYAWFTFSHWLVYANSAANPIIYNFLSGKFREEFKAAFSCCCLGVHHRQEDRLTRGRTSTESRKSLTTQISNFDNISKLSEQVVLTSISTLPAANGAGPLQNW

OX1R [2] = molecular target: T2, OX1R (Homo sapiens, UniProt O43613); experiment: OX1R assay as described in WO2016/034882
T2 sequence (O43613 1-425): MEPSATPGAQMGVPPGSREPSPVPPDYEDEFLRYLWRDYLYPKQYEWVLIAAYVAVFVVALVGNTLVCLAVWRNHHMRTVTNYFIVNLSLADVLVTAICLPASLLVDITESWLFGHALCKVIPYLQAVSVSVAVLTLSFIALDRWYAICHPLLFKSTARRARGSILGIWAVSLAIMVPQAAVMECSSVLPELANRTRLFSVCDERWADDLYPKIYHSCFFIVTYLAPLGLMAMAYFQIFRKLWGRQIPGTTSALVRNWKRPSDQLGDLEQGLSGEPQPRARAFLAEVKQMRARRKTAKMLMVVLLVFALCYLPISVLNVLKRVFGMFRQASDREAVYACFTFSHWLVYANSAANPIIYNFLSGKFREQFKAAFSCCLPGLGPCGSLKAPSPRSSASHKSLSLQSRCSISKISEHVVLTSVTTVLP

human MDR1 P-gp = molecular target: T3, human MDR1 P-gp (Homo sapiens, UniProt P08183); experiment: Assay D: efflux in MDCK cells transfected with the human MDR1 gene; assay type: in vitro ADME; conditions: MDCK-MDR1 monolayers, pH 7.4, 37°C, read-out: Assay D:MDCK efflux ratio (BA/AB)
T3 construct: expressed in transfected cells; host or cells: MDCK (MDCK-MDR1)
Description: The MDCK assay provides information on the potential of a compound to pass the blood brain barrier. Permeability measurements across polarized, confluent MDCK-MDR1 cell monolayers grown on permeable filter supports are used as an in vitro absorption model: apparent permeability coefficients (PE) of the compounds across the MDCK-MDR1 cell monolayers are measured (pH 7.4, 37°C) in apical-to-basal (AB) and basal-to-apical (BA) transport direction. The AB permeability (PEAB) represents drug absorption from the blood into the brain and the BA permeability (PEBA) drug efflux from the brain back into the blood via both, passive permeability as well as active transport mechanisms mediated by efflux and uptake transporters that are expressed on the MDCK-MDR1 cells, predominantly by the overexpressed human MDR1 P-gp. Identical or similar permeabilities in both transport directions indicate passive permeation, vectorial permeability points to additional active transport mechanisms. Higher PEBA than PEAB (PEBA/PEAB > 5) indicates the involvement of active efflux mediated by MDR1 P-gp, which might compromises the goal to achieve sufficient brain exposure. Therefore this assay provides valuable support for selection of compounds applicable for further in vivo testing. High permeability not limited by efflux at the blood brain barrier is a favourable characteristic for compounds that are to be used for drugs acting primarily in the CNS
Apparent permeability coefficients (PE) of the compounds across the MDCK-MDR1 cell monolayers are measured (pH 7.4, 37°C) in apical-to-basal (AB) and basal-to-apical (BA) transport direction. AB permeability (PEAB) represents drug absorption from the blood into the brain and BA permeability (PEBA) drug efflux from the brain back into the blood via both passive permeability as well as active transport mechanisms mediated by efflux and uptake transporters that are expressed on the MDCK-MDR1 cells, predominantly by the overexpressed human MDR1 P-gp. The compounds are assigned to permeability/absorption classes by comparison of the AB permeabilities with the AB permeabilities of reference compounds with known in vitro permeability and oral absorption in the human. Identical or similar permeabilities in both transport directions indicate passive permeation, vectorial permeability points to additional active transport mechanisms. Higher PEBA than PEAB indicates the involvement of active efflux mediated by MDR1 P-gp. Active transport is concentration- dependently saturable.
MDCK-MDR1 cells (1-2 x 10e5 cells/1 cm2 area) are seeded on filter inserts (Costar transwell polycarbonate or PET filters, 0.4 µm pore size) and cultured (DMEM) for 7 days. Subsequently, the MDR1 expression is boosted by culturing the cells with 5 mM sodium butyrate in full medium for 2 days. Compounds are dissolved in appropriate solvent (like DMSO, 1 -20 mM stock solutions). Stock solutions are diluted with HTP-4 buffer (128.13 mM NaCl, 5.36 mM KCI, 1 mM MgSO4, 1.8 mM CaCl2, 4.17 mM NaHCO3, 1.19 mM Na2HPO4 x 7H2O, 0.41 mM NaH2PO4xH2O, 15 mM HEPES, 20 mM glucose, 0.25 % BSA, pH 7.4) to prepare the transport solutions (0.1 - 300 µM compound, final DMSO <= 0.5 %). The transport solution (TL) is applied to the apical or basolateral donor side for measuring A-B or B-A permeability (3 filter replicates), respectively. The receiver side contains the same buffer as the donor side. Samples are collected at the start and end of experiment from the donor and at various time intervals for up to 2 hours also from the receiver side for concentration measurement by HPLC-MS/MS or scintillation counting. Sampled receiver volumes are replaced with fresh receiver solution.

[3] = Assay C: metabolic stability in human liver microsomes (human MST); assay type: in vitro ADME; conditions: pooled human liver microsomes, pH 7.6, 1 µM test compound, 37°C
Description: Stability in human liver microsomes refers to the susceptibility of compounds to biotransformation in the context of selecting and/or designing drugs with favorable pharmacokinetic properties. The primary site of metabolism for many drugs is the liver. Human liver microsomes contain the cytochrome P450s (CYPs), and thus represent a model system for studying drug metabolization in vitro. Enhanced stability in human liver microsomes is associated with several advantages, including increased bioavailability and longer half-life, which can enable lower and less frequent dosing of patients. Thus, enhanced stability in human liver microsomes is a favorable characteristic for compounds that are to be used for drugs.
The metabolic stability of the compounds according to the invention may be investigated as follows: The metabolic degradation of the test compound is assayed at 37°C with pooled human liver microsomes. The final incubation volume of 100 µL per time point contains TRIS buffer pH 7.6 at room temperature (0.1 M), MgCl2 (5 mM), microsomal protein (1 mg/mL) and the test compound at a final concentration of 1 µM. Following a short pre-incubation period at 37°C , the reactions are initiated by addition of beta-nicotinamide adenine dinucleotide phosphate, reduced form (NADPH, 1 mM), and terminated by transferring an aliquot into solvent after different time points. After centrifugation (10000 g, 5 min), an aliquot of the supernatant is assayed by LC-MS/MS for the amount of parent compound. The half-life (t1/2) is determined by the slope of the semi-logarithmic plot of the concentration-time profile.

OX1R [4] = molecular target: T2, OX1R; conditions: cited from earlier work
human orexin 2 receptor = molecular target: T4, human orexin 2 receptor (Homo sapiens, UniProt O43614); assay type: cell-based; conditions: 0.5 nM Orexin A
T4 sequence (O43614 1-444): T1 sequence (O43614 1-444)
Description: Chem. Genomics 2009, 3, 22-32.

OX2R [5] = molecular target: T1, OX2R; conditions: as described in WO2013/187466; agonist 3 nM modified orexin A; cited from earlier work
[6] = corresponds to pIC50 of Table 1 of WO2016/034882
[7] = read-out: Assay C: Human MST t1/2
[8] = corresponds to pIC50 of Table 3 of WO2016/034882
[9] = from values of Table 3 of WO2016/034882

T3 sequence (P08183 whole entry): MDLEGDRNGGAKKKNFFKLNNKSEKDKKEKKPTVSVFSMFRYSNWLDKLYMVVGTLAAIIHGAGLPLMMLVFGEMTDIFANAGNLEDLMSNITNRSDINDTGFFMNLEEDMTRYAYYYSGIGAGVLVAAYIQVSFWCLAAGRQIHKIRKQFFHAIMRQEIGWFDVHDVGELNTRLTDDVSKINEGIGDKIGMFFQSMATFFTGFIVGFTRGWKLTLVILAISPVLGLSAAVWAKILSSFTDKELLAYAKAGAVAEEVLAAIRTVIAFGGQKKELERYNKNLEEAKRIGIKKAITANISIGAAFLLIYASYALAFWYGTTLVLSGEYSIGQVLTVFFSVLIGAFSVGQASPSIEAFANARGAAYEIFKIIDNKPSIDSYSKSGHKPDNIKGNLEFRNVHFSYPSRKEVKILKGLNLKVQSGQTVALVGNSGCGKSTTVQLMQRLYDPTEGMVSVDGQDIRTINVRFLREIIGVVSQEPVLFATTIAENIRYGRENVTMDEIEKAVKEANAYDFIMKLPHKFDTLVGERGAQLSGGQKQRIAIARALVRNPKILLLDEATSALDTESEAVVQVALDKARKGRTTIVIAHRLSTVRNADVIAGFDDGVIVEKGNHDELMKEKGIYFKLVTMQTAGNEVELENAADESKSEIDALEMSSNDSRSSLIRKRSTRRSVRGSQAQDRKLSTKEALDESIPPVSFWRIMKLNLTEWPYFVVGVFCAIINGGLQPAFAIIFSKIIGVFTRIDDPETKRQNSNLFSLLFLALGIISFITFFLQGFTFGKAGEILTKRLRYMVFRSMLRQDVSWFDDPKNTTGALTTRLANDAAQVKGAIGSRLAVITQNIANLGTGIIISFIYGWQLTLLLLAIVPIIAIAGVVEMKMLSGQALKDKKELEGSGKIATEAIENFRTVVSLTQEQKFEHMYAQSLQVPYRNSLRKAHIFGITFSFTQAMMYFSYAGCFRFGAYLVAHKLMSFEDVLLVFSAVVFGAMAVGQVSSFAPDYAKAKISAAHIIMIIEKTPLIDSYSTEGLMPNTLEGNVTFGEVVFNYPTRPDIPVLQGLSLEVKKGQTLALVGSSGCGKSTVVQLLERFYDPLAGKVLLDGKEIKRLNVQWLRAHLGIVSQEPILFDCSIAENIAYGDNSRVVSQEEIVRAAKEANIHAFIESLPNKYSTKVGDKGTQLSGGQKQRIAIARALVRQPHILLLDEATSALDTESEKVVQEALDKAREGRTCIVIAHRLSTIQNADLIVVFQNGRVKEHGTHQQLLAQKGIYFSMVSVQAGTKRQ

Compound	pIC50 (OX2R [1]; [6])	OX2R IC50/OX1R IC50 (OX1R [2]; from values of Table 1 of WO2016/034882)	efflux ratio (human MDR1 P-gp)	half-life at 1 µM [3, 7] [min]	pIC50 (OX1R [4]; [6])	OX2R pIC50 (OX2R [1]; Table 1 of WO2016/034882)	OX2R pIC50 (OX2R [1]; Table 2 of WO2016/034882)	OX2R pIC50 (OX2R [1]; Table 3 of WO2016/034882)	pIC50 (OX2R [1]; corresponds to pIC50 of Table 2 of WO2016/034882)	pIC50 (OX2R [1]; [8])	OX2R IC50/OX1R IC50 (OX1R [2]; [9])	pIC50 (OX1R [4]; [8])	Kb (human orexin 2 receptor) [nM]	pIC50 (OX2R [5])	half-life at 1 µM ([3]; read-out: Data as determined in Assay C: Human MST t1/2) [min]
CC[C@@H](CNc1cnc(C(F)(F)F)cn1)N(C)C(=O)c1cc(Cl)ccc1-n1nccn1 [Example 40 in WO2016/034882]	5.60	Table 1: 156	< 3	9	7.80	–	–	–	–	–	–	–	–	–	–
CC[C@@H](CNc1ncc(C(F)(F)F)cn1)N(C)C(=O)c1nc(C)ccc1-n1nccn1 [Example 46 in WO2016/034882]	–	–	< 3	32	7.70	5.1	< 5.0	< 5.0	< 5.00	≤ 5.00	–	–	–	–	–
CC[C@@H](CNc1ncc(C(F)(F)F)cn1)N(C)C(=O)c1c(F)cccc1-n1nccn1 [Example 91 in WO2016/034882]	–	–	< 3	> 120	–	–	–	< 5.1	–	≤ 5.10	Table 3: 318	7.60	–	–	–
CC[C@@H](CNc1ncc(C(F)(F)F)cn1)N(C)C(=O)c1nc(C)ccc1-n1cccn1 [Example 90 in WO2016/034882]	–	–	< 3	26	–	–	–	< 6.0	–	< 6.00	Table 3: >526	8.72	974	–	–
C[C@@H](Cn1ccc(-c2ccc(F)cn2)n1)N(C)C(=O)c1cc(F)ccc1-c1ncccn1 [Example 5 in WO2013/187466, reference compound]	–	–	–	–	–	–	–	–	–	–	–	–	–	7.12	30
